Measured values as given in patent US20070253913A1, “Aerosol formulations for delivery of dihydroergotamine to the systemic circulation via pulmonary inhalation” (priority 2003, published 2007).
Values joined by “and” are separate entries in the source; they are usually repeats but may differ in a detail not shown here. Equal entries are not always repeated. Structures can show the parent of a compound that is named as a salt. Where two headings read alike, the source gives them in different places.

Tests used:
[1] = Powder stability with accelerated environmental aging, particle size by Aerosizer; type: physicochemical; settings: MMAD
Description: (§1) DHE particle were produced by the SEDS super critical fluid process as described by Palakadoty et al. (US Application 20030109421). The DHE particulate powder produced was assayed by HPLC to determine purity and the mass mean aerodynamic diameter was determined using an Aerosizer instrument under standard operating conditions known in the art. […] The DHE particulate powder was subject to standard accelerated aging conditions of: (i) 3 months at 40 degrees Celsius and 75% relative humidity; and (ii) 25 degrees Celsius and 60% relative humidity. The DHE particles were placed in a tightly sealed dark glass container and placed in the appropriate incubation ovens for the 3 month period. At the end of the three month period, purity and particle size were again assessed as discussed above.

[2] = Pharmacokinetics of DHE in dog serum after DPI inhalation vs intravenous bolus; type: in vivo, dogs; settings: for Tmax: dog serum, inhalation 1 mg DPI
Description: In this study, dogs were administered the DHE particles via the DPI format (total dose 1 mg) and by intravenous bolus (total dose 0.5 mg) and DHE levels were measured in dog serum at defined intervals.

[3] = cited from earlier work
[4] = Powder stability with accelerated environmental aging, HPLC assay; type: physicochemical
Description: as §1

SMILES | Particle Size (microns by Aerosizer) ([1]; 3 Months @ 25 C./60% RH) | Particle Size (microns by Aerosizer) ([1]; 3 Months @ 40 C./75% RH) | Particle Size (microns by Aerosizer) ([1]; Initial, on production) | Tmax ([2]; individual dogs) | blood levels of DHE compared to intravenous delivery ([2]; dog, DPI 1 mg vs iv bolus 0.5 mg, FIG. 1) | time to measurable levels of DHE in the blood after inhalation ([2]; dog, DPI 1 mg, FIG. 1) | bioavailability ([2]; dog, in vivo, dog, inhalation 1.0 mg vs iv bolus 0.5 mg, n=3, read-out: F (bioavailability) Average (%)) | Tmax ([2]; dog, in vivo, inhaled or intranasal, 1 mg, individual dogs, read-out: Tmax (converted)) | Tmax ([2]; dog, in vivo, inhaled or intranasal, 1 mg, n=3, read-out: Tmax Average (converted)) | F (bioavailability) (%) ([2]; dog, inhalation 1.0 mg vs iv bolus 0.5 mg, individual dogs) | bioavailability, administered dose reaching the systemic circulation ([3]; in vivo) | HPLC Assay (%) ([4]; 3 Months @ 25 C./60% RH, sealed dark glass container) | HPLC Assay (%) ([4]; 3 Months @ 40 C./75% RH, sealed dark glass container) | HPLC Assay (%) ([4]; Initial, on production) | bioavailability ([3]; pulmonary delivery)
CN1C[C@H](C(=O)N[C@]2(C)O[C@@]3(O)[C@@H]4CCCN4C(=O)[C@H](Cc4ccccc4)N3C2=O)C[C@@H]2c3cccc4[nH]cc(c34)C[C@H]21 [DHE, dihydroergotamine] | 1.044 microns | 1.091 microns | 1.131 microns | 10 min | maintained at higher levels over an extended period of time | ≤ 30 s | 52% | 5 min | 6.7 min | 27% and 49% and 80% | 2-10% | 101.0% | 102.0% | 98.3% | –
CN1C[C@H](C(=O)N[C@]2(C)O[C@@]3(O)[C@@H]4CCCN4C(=O)[C@H](Cc4ccccc4)N3C2=O)C=C2c3cccc4[nH]cc(c34)C[C@H]21 [ergotamine tartrate] | – | – | – | – | – | – | – | – | – | – | – | – | – | – | up to 92%
